Test results published in patent US6979686B1, “Substituted pyrazoles as p38 kinase inhibitors” (Pharmacia Corporation, priority 2001, dated 2005).
Read-outs that look alike come from different tables or passages of the source. Blank lines part the entries; values can stand above or below the compound they belong to.

Legend:
[1] = molecular target: T1, human p38 kinase alpha (Homo sapiens, UniProt Q16539); assay: p38 kinase in vitro assay, phosphorylation of biotinylated PHAS-I with 32P-ATP; format: biochemical; details: for IC50: read-out: P38 alpha kinase IC50
T1 construct: GST (N, cleaved yes); made in house; host or cells: E. coli DH10B

[2] = test system: TNF-α, U937 human histiocytic lymphoma cell line; assay: LPS stimulation of TNF production by U937 cells; format: cell-based; details: for inhibition at 1 µM / IC50: Homo sapiens; for inhibition at 1 µM: U-937, @ 1.0 uM, read-out: U937 Cell % inhib @ conc.; for IC50: U-937, TNF production, human U937 cells stimulated with LPS, read-out: U937 Cell IC50; for U937 Cell % inhib @ conc. (uM): @ 1.0 uM
Procedure: Maintenance and Differentiation of the U937 Human Histiocytic Lymphoma Cell Line:
Fifty million cells in 100 ml media were induced to terminal monocytic differentiation by 24 hour incubation with 20 ng/ml phorbol 12-myristate 13-acetate (Sigma). The cells were washed by centrifugation (200×g for 5 min) and resuspended in 100 ml fresh medium. After 24-48 hours, the cells were harvested, centrifuged, and resuspended in culture medium at 2 million cells/ml.
LPS Stimulation of TNF Production by U937 Cells:
Compounds were prepared as 10 mM stock solutions in DMSO and diluted in culture medium to yield a final DMSO concentration of 0.1% in the cell assay. LPS (E coli, 100 ng/ml final concentration) was then added at a volume of 0.02 ml. After 4 hour incubation at 37° C., the amount of TNF-α released in the culture medium was quantitated by ELISA. Inhibitory potency is expressed as IC50 (μM).
In vitro whole cell assay for measuring the ability of the compounds to inhibit TNF production in human U937 cells stimulated with LPS are shown in the column identified as: • “U937 Cell IC50, uM or % inhib @ conc., (uM)”

[3] = in vitro P38-alpha kinase inhibition
[4] = TNF production in human U937 cells stimulated with LPS
[5] = TNF production, LPS-stimulated U937 cells
[6] = TNF production, U937 cells stimulated with LPS

T1 sequence (Q16539 whole entry): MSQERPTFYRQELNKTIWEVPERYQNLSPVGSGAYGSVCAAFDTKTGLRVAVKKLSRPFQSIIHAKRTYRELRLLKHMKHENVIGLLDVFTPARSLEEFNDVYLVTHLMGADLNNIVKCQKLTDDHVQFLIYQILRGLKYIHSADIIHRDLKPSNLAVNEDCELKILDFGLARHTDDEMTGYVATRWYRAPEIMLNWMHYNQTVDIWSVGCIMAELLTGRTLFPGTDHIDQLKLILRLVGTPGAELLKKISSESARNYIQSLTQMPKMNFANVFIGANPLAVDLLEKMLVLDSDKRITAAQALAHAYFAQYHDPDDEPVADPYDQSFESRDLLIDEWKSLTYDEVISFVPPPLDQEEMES

SMILES: N#Cc1ccc(S(=O)(=O)N2CCC(c3[nH]nc(-c4ccc(F)cc4)c3-c3ccncc3)CC2)cc1 [Example B-1475]
IC50 ([1]; in vitro P38-alpha kinase): 2100 nM
inhibition at 1 µM [2, 5]: 24%

SMILES: O=C(c1ccc(Cl)cc1)N1CCC(c2[nH]nc(-c3ccc(F)cc3)c2-c2ccncc2)CC1 [Example B-1389]
IC50 ([1]; in vitro P38-alpha kinase): 60 nM
IC50 [2]: 570 nM

SMILES: O=S(=O)(NCCc1[nH]nc(-c2ccc(F)cc2)c1-c1ccncc1)c1cccc(Cl)c1Cl [Example B-1073]
IC50 [1, 3]: < 100 nM
inhibition at 1 µM [2, 6]: 21%

SMILES: COc1ccc(NC(=O)NC(C)c2[nH]nc(-c3ccc(F)cc3)c2-c2ccncc2)c(OC)c1 (stereo not drawn) [Example B-0599]
IC50 [1, 3]: 4160 nM
U937 Cell % inhib @ conc. (uM) [2, 4]: 21.0% @

SMILES: CNC(=O)CCC(NC(=O)Nc1ccccc1F)c1[nH]nc(-c2ccc(F)cc2)c1-c1ccncc1 (stereo not drawn) [Example B-0881]
IC50 [1, 3]: 1360 nM
IC50 [2]: > 1000 nM

SMILES: CC(NC(=O)c1cccc(C(F)(F)F)c1F)c1[nH]nc(-c2ccc(F)cc2)c1-c1ccncc1 (stereo not drawn) [Example B-0687]
IC50 [1, 3]: 10100 nM
U937 Cell % inhib @ conc. (uM) [2, 4]: 15.0% @

SMILES: COC(=O)C1CN1C(=O)Cn1nc(-c2ccc(F)cc2)c(-c2ccncc2)c1C (stereo not drawn) [Example B-2406]
P38 alpha kinase IC50, uM or % inhib @ conc. (uM): % inhib ([1]; @ 10.0 uM): 45.0% @
U937 Cell IC50, uM or % inhib @ conc. (uM): % inhib ([2]; @ 10.0 uM, TNF production, U937 cells stimulated with LPS): 24.0% @

SMILES: O=S(=O)(NCCCc1[nH]nc(-c2ccc(F)cc2)c1-c1ccncc1)c1cccc(Cl)c1Cl [Example B-1250]
IC50 ([1]; in vitro P38-alpha kinase): 140 nM
inhibition at 1 µM [2, 5]: 18%

SMILES: O=S(=O)(NC(Cc1ccccc1)c1[nH]nc(-c2ccc(F)cc2)c1-c1ccncc1)c1cccs1 (stereo not drawn) [Example B-0765]
IC50 [1, 3]: 300 nM
inhibition at 1 µM [2, 4]: 29%

SMILES: O=C(NC(Cc1ccccc1)c1[nH]nc(-c2ccc(F)cc2)c1-c1ccncc1)c1ccccc1C(F)(F)F (stereo not drawn) [Example B-0844]
IC50 [1, 3]: 400 nM
inhibition at 1 µM [2, 6]: 25%

SMILES: O=S(=O)(c1c(F)cccc1F)N1CCC(c2[nH]nc(-c3ccc(F)cc3)c2-c2ccncc2)CC1 [Example B-1455]
IC50 ([1]; in vitro P38-alpha kinase): 1210 nM
inhibition at 1 µM [2, 5]: 8%

SMILES: Cc1ccc(C)c(S(=O)(=O)NCCCc2[nH]nc(-c3ccc(F)cc3)c2-c2ccncc2)c1 [Example B-1273]
IC50 ([1]; in vitro P38-alpha kinase): < 100 nM
inhibition at 1 µM [2, 5]: 36%

SMILES: CNC(=O)CCC(NC(=O)c1ccc(C)cc1)c1[nH]nc(-c2ccc(F)cc2)c1-c1ccncc1 (stereo not drawn) [Example B-0873]
IC50 [1, 3]: 6920 nM
IC50 [2]: > 1000 nM

SMILES: COc1ccc(CC(=O)NC(Cc2ccccc2)c2[nH]nc(-c3ccc(F)cc3)c2-c2ccncc2)cc1OC (stereo not drawn) [Example B-0847]
IC50 [1, 3]: 730 nM
inhibition at 1 µM [2, 6]: 21%

Further lines, with some results ahead:

IC50 [1, 3]: 1770 nM
SMILES: COc1ccc(CC(=O)NC(C)c2[nH]nc(-c3ccc(F)cc3)c2-c2ccncc2)cc1OC (stereo not drawn) [Example B-0548]
inhibition at 1 µM [2, 4]: 28%

inhibition at 1 µM ([1]; @ 1.0 uM, read-out: P38 alpha kinase % inhib @ conc.): 92%
IC50 [2]: 8240 nM
SMILES: COc1ccc(CC(=O)NCc2[nH]nc(-c3ccc(F)cc3)c2-c2ccncc2)cc1 [Example B-0036]

IC50 [1, 3]: 1820 nM
IC50 [2]: > 1000 nM
SMILES: O=C(NCCc1[nH]nc(-c2ccc(F)cc2)c1-c1ccncc1)c1cccc(C(F)(F)F)c1F [Example B-1138]

P38 alpha kinase % inhib @ conc. (uM) ([1]; @ 1.0 uM): 74.0% @
SMILES: O=C(NCCc1[nH]nc(-c2ccc(F)cc2)c1-c1ccncc1)c1ccccc1 [Example B-1003]
U937 Cell % inhib @ conc. (uM) [2, 6]: 29.0% @

IC50 [1, 3]: 2410 nM
SMILES: COc1cccc(CC(=O)NC(C)c2[nH]nc(-c3ccc(F)cc3)c2-c2ccncc2)c1 (stereo not drawn) [Example B-0550]
inhibition at 1 µM [2, 4]: 14%

IC50 [1, 3]: 3220 nM
SMILES: O=C(NCCc1[nH]nc(-c2ccc(F)cc2)c1-c1ccncc1)c1ccc(C(F)(F)F)cc1 [Example B-1155]
inhibition at 1 µM [2, 6]: 30%

P38 alpha kinase % inhib @ conc. (uM) ([1]; @ 1.0 uM): 63.0% @
SMILES: COc1cccc(CC(=O)NCCc2[nH]nc(-c3ccc(F)cc3)c2-c2ccncc2)c1 [Example B-1001]
U937 Cell % inhib @ conc. (uM) [2, 6]: 31.0% @
